PubChem BioAssay (NCI)
Values joined by “and” are separate entries in the source; they are usually repeats but may differ in a detail not shown here. Equal entries are not always repeated.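 All cell lines were grown in 96-well plates and treated with compound for 48 hours. The concentration for 50% growth inhibition is given as GI50. TGI: concentration producing complete growth inhibition.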

Assays:
Assay in all cases: NCI-60 cell line screen, 48 h
SK-MEL-2 melanoma = system: SK-MEL-2 melanoma
LOX IMVI melanoma = system: LOX IMVI melanoma
SN12C renal = system: SN12C renal
NCI-H226 lung = system: NCI-H226 lung
UACC-62 melanoma = system: UACC-62 melanoma
HOP-62 NSCLC = system: HOP-62 NSCLC
SF-268 CNS = system: SF-268 CNS
A549 NSCLC = system: A549 NSCLC
COLO 205 colon = system: COLO 205 colon
OVCAR-4 ovarian = system: OVCAR-4 ovarian

| SMILES | GI50 (SK-MEL-2 melanoma) [µM] | TGI (SK-MEL-2 melanoma) | GI50 (LOX IMVI melanoma) | TGI (LOX IMVI melanoma) | GI50 (SN12C renal) [µM] | TGI (SN12C renal) | GI50 (NCI-H226 lung) [µM] | TGI (NCI-H226 lung) | GI50 (UACC-62 melanoma) | TGI (UACC-62 melanoma) | GI50 (HOP-62 NSCLC) | TGI (HOP-62 NSCLC) [µM] | GI50 (SF-268 CNS) | TGI (SF-268 CNS) | GI50 (A549 NSCLC) | TGI (A549 NSCLC) | GI50 (COLO 205 colon) | TGI (COLO 205 colon) | GI50 (OVCAR-4 ovarian) [µM] | TGI (OVCAR-4 ovarian) |
| --- | --- | --- | --- | --- | --- | --- | --- | --- | --- | --- | --- | --- | --- | --- | --- | --- | --- | --- | --- | --- |
| CCOC(=O)/C(=C/CC/C(C)=C/CC/C(C)=C/CCc1ccoc1)CC(=O)N1CCCCC1 | 2.04 | 4 µM | 4.43 µM | 15.8 µM | 3.79 | 14.8 µM | 4.48 | 19.4 µM | 2.8 µM | 12.7 µM | 4.4 µM | 19.8 | 8.91 µM | 38.3 µM | 1.92 µM | 4.14 µM | 2.32 µM | 6.05 µM | – | – |
| Clc1ccc(-c2cc(-c3ccccc3)nc(N3CCN(CCCNc4ccnc5cc(Cl)ccc45)CC3)n2)cc1 | 1.82 | 3.39 µM | 1.75 µM | 3.19 µM | 1.42 | 2.84 µM | – | – | 1.79 µM | 3.25 µM | 1.2 µM | 2.78 | 1.73 µM | 3.64 µM | 1.77 µM | 3.75 µM | 1.87 µM | 3.7 µM | 1.16 | 2.61 µM |
| C#CCN(N=O)C(=O)NC(CCCCNC(=O)OCc1ccccc1)C(=O)OCc1ccccc1 (configuration not stated) | – | > 100 µM | – | 59.1 µM | – | 97.9 µM | – | – | – | > 100 µM | – | > 100 | – | > 100 µM | – | > 100 µM | – | 96.6 µM | – | 72.8 µM |
| CC(Oc1cc2oc(=O)cc(-c3ccccc3)c2cc1Cl)C(=O)O (configuration not stated) | – | – | – | > 100 µM | – | > 100 µM | – | > 100 µM | – | > 100 µM | – | > 100 | – | > 100 µM | – | > 100 µM | – | > 100 µM | – | > 100 µM |
| CC1CC(C[N+](=O)[O-])CC2(C1)OCCO2 (configuration not stated) | – | > 100 µM | – | – | – | > 100 µM | – | > 100 µM | – | > 100 µM | – | > 100 | – | > 100 µM | – | > 100 µM | – | > 100 µM | – | > 100 µM |
| C[C@@H](C1CC[C@H]2[C@@H]3[C@@H]4O[C@@H]4[C@@]4(O)CC=CC(=O)[C@]4(C)[C@H]3C[C@H](O)[C@]12C)[C@H]1C[C@]2(C)O[C@]2(C)C(=O)O1 (some centres not stated) | – | > 100 µM | – | > 100 µM | – | > 100 µM | – | > 100 µM | – | > 100 µM | – | – | – | > 100 µM | – | > 100 µM | – | > 100 µM | – | > 100 µM |
| CCCCC(C(=O)C(=O)Nc1ccc(C)cc1C)C(=O)C(C)C (configuration not stated) | – | > 100 µM | – | > 100 µM | – | > 100 µM | – | > 100 µM | – | > 100 µM | – | > 100 | – | > 100 µM | – | > 100 µM | – | – | – | > 100 µM |
| NC(CCSCC(F)(F)F)C(=O)O (configuration not stated) | – | – | – | > 100 µM | – | > 100 µM | – | > 100 µM | – | > 100 µM | – | > 100 | – | > 100 µM | – | > 100 µM | – | > 100 µM | – | > 100 µM |
| O=C(CCc1nc(=S)[nH][nH]1)Nc1cc(Cl)ccc1Cl | – | > 100 µM | – | – | – | > 100 µM | – | > 100 µM | – | > 100 µM | – | > 100 | – | > 100 µM | – | > 100 µM | – | > 100 µM | – | > 100 µM |
| COc1cc(/C=C/C(=O)c2cccc3ccccc23)cc(OC)c1OC | – | 12.4 µM | – | 12.1 µM | – | 12.5 µM | – | 30.3 µM | – | 21.3 µM | – | 18.8 | – | 18.2 µM | – | 37 µM | – | – | – | 19.1 µM |
| Nc1nc(N)c2c(n1)NC(c1sc(Cl)nc1Cl)CC(c1ccccc1)=N2 (configuration not stated) | 2.98 | 10.9 µM | 5.39 µM | 18.1 µM | 5.83 | 18.5 µM | 13.7 | 35.1 µM | 3.05 µM | 13.9 µM | 3.72 µM | 18 | 5.68 µM | 22.5 µM | 5.02 µM | 19.4 µM | 4.18 µM | 15.4 µM | – | – |
| O/N=C1/CCCC/C1=C/C=C/c1ccccc1 | – | 36.6 µM | – | 31.3 µM | – | 33.4 µM | – | 60.7 µM | – | 40.8 µM | – | – | – | 47.1 µM | – | 54.9 µM | – | 35.4 µM | – | > 100 µM |
| CC12Nc3ccccc3C1=C(c1ccccc1)CC1C(=O)OC(=O)C12 (configuration not stated) | – | > 100 µM | – | > 100 µM | – | > 100 µM | – | – | – | > 100 µM | – | > 100 | – | > 100 µM | – | > 100 µM | – | > 100 µM | – | > 100 µM |
| COc1ccc(C(c2ccccc2C(=O)O)c2ccc(OC)c3ccccc23)c2ccccc12 | – | – | – | 50.6 µM | – | 29.7 µM | – | 63.5 µM | – | 16.4 µM | – | 30.2 | – | – | – | 31 µM | – | 30.2 µM | – | 25.6 µM |
| C/C(=N\Nc1ccccc1)c1sc(-c2nc(C)c(/C(C)=N/Nc3ccccc3)s2)nc1C | – | > 100 µM | – | > 100 µM | – | > 100 µM | – | > 95.7 µM | – | 13.6 µM | – | – | – | > 64.6 µM | – | > 35.8 µM | – | 25.6 µM | – | > 100 µM |
| NC(Cc1ccccc1)C(=O)OCN1C(=O)C2C3C=CC(C2C1=O)C1C2C(=O)N(COC(=O)C(N)Cc4ccccc4)C(=O)C2C31 (configuration not stated) | – | – | – | 41.4 µM and 36.8 µM | – | 52.7 µM and 43.9 µM | – | > 100 µM and 72.1 µM | – | 41.4 µM and 37.7 µM | – | > 100 | – | 48.3 µM and 41.6 µM | – | 61.7 µM and 48.7 µM | – | 32.8 µM and 32.2 µM | – | 34 µM and 44.5 µM |
| Cc1ccc2c(c1)[n+](=O)c(C(=O)c1cccs1)c(C(F)(F)F)n2[O-] | – | 50 µM and 18.6 µM | 0.612 µM and 0.561 µM | 1.76 µM and 1.82 µM | 0.796 | 1.97 µM | 2.21 | 13.2 µM | 0.951 µM and 1.91 µM | 2.73 µM and 13.9 µM | 2.39 µM and 0.689 µM | – | 0.881 µM and 0.108 µM | 3.31 µM and 0.511 µM | 1.72 µM and 0.764 µM | 20.9 µM and 10.8 µM | 1.47 µM and 0.842 µM | 7.68 µM and 10.9 µM | – | – |
| O=C1C=CC2(CCCCCCC2=O)CC1 (configuration not stated) | – | – | – | > 100 µM | – | > 100 µM | – | > 100 µM | – | > 100 µM | – | > 100 | – | > 100 µM | – | > 100 µM | – | > 100 µM | – | > 100 µM |
| C[C@@H](Nc1nc(N[C@H](C)C(F)(F)F)nc(-c2cccc(Cl)n2)n1)C(F)(F)F | 25.6 | > 100 µM | 79.8 µM | > 100 µM | 46.6 | > 100 µM | 35.6 | > 100 µM | – | – | 27.5 µM | > 100 | 29.4 µM | > 100 µM | 50.3 µM | > 100 µM | > 100 µM | > 100 µM | 23.3 | 96.9 µM |
| CCc1cccc(C(C)C)c1NC(=O)CC1Sc2ccccc2NC1=O (configuration not stated) | – | > 100 µM | – | > 100 µM | – | > 100 µM | – | > 100 µM | – | – | – | > 100 | – | > 100 µM | – | > 100 µM | – | > 100 µM | – | > 100 µM |
